The target in this assay is xanthine oxidase (Homo sapiens, UniProt P47989). The experiment in a line: Xanthine oxidase inhibitory activity measured by HPLC (xanthine content). In kind it is biochemical. The note with it: Flazin samples 0.625-20.0 mg/ml; xanthine 50 μg/ml, xanthine oxidase 0.1 U, 30° C., 30 min; FIG. 1. On the procedure: Xanthine oxidase inhibitory activity was measured as follows. Firstly, concentrations (0.625, 1.25, 2.5, 5.0, 10.0 and 20.0 mg/ml) of Flazin samples were prepared. Then, xanthine oxidase inhibitory activity was measured by HPLC by the following procedure. In a reaction tube, 880 μl of xanthine (50 μg/ml in 100 mM PBS) and 40 μl of 50 mM PBS or 40 μl of the Flazin samples were premixed, and 80 μl […] of xanthine oxidase (0.1 U) was added to initiate the reaction. The reaction was incubated at 30° C. for 30 min., after which an equal volume of absolute ethanol was added to terminate the reaction. The terminated reaction was filtered through a 0.22 μm membrane filter and the content of xanthine in the reactions was analyzed by HPLC. Xanthine oxidase inhibitory activity of the samples was calculated as follows: […]
Chain of xanthine oxidase (P47989 whole entry, species assumed): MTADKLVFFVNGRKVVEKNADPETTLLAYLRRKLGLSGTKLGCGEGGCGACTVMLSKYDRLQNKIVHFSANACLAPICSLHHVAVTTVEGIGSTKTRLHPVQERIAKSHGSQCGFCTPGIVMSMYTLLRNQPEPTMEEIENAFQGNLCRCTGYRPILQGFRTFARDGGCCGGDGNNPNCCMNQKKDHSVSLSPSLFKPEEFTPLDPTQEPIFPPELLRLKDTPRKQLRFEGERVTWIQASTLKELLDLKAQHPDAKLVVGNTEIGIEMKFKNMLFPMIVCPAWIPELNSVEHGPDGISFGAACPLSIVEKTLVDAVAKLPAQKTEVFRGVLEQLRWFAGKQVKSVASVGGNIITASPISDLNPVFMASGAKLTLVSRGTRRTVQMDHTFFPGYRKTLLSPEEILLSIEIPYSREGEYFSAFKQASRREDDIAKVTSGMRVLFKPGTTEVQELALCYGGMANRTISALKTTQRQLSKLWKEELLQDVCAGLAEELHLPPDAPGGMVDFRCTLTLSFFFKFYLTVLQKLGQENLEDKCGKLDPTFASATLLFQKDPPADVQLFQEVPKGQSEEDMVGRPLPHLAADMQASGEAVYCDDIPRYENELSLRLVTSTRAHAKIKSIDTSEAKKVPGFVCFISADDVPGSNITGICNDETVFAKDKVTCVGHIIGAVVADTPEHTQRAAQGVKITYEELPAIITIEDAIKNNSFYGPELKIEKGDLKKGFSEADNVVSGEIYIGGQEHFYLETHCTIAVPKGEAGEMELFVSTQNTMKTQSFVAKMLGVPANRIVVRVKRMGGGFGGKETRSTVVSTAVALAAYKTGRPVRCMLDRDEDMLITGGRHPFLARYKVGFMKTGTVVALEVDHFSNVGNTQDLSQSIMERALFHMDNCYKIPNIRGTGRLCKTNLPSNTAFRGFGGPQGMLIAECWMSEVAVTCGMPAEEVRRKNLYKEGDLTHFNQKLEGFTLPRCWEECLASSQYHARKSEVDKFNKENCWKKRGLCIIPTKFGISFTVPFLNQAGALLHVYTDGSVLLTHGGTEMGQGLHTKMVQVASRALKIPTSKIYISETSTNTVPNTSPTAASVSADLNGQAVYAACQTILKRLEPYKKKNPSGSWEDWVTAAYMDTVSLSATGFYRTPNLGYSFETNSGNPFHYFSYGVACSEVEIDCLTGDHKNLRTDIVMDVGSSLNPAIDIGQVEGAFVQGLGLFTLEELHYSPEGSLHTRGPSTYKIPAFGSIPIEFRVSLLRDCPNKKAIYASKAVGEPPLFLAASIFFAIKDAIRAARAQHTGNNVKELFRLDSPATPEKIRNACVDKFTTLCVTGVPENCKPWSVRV

Structures are written as SMILES.

As to `O=C(O)c1cc2c([nH]c3ccccc32)c(-c2ccc(CO)o2)n1` [Flazin, 1-[5-(hydroxymethyl)furan-2-yl]-9H-pyrido[3,4-b]indole-3-carboxylic acid], the IC50 (commonly the concentration that inhibits the measured activity by half) was roughly 32.1 mM.

The values above are taken from patent US20170165239A1, “USE OF BETA-CARBOLINE ALKALOID IN INHIBITING XANTHINE OXIDASE ACTIVITY” (Food Industry Research And Development Institute, priority 2015, published 2017).
